Assay in all cases: relative viability (nuclei count vs DMSO), 5 days (fraction); higher = more cells survive
Compound in test [1]: Cn1cc(-c2cnc3ccc4ccc(CS(=O)(=O)NCc5ccccn5)cc4c(=O)c3c2)cn1 [MK-8033] + COc1cccc2cc(-c3nc([C@H]4CC[C@H](C(=O)O)CC4)n4ncnc(N)c34)[nH]c12 [OSI-027] (partner 0.5 µM)
A digest of the protocol: (§1)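 A single step with final 0.05% Triton X-100, 1% formaldehyde and 1 ug/ml Hoechst fixed the cells and stained nuclei 5 days after treatment. Lung cancer cell lines in 1536-well plates had been treated by pin tool the day after seeding with one drug alone or a fixed anchor-drug dose plus five library-drug doses (not always all listed) in √10 steps, and nuclei were counted on 4× images. Relative viability is the ratio of nuclei in treated wells to nuclei in vehicle wells, taken as the median of duplicate plates.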

Compound in test [2]: CCc1c2c(nc3ccc(OC(=O)N4CCC(N5CCCCC5)CC4)cc13)-c1cc3c(c(=O)n1C2)COC(=O)[C@]3(O)CC [Irinotecan] + CS(=O)(=O)N1CCN(Cc2cc3nc(-c4cccc5[nH]ncc45)nc(N4CCOCC4)c3s2)CC1 [Pictilisib] (partner 1 µM)
Summed up: as §1

Compound in test [3]: Cn1cc(-c2cnc3ccc4ccc(CS(=O)(=O)NCc5ccccn5)cc4c(=O)c3c2)cn1 [MK-8033] + N=C(N)NC(=N)NCCc1ccccc1 [Phenformin] (partner 250 µM)
A digest of the protocol: as §1

Compound in test [4]: CC[C@@H](C)CNCC(=O)N1CCC2=C([C@@H]1COC3=CC=CC(=C3)C)C=CS2 [RU-SKI 43] + C[C@]1(O)C[C@@H](c2nc(-c3ccc4ccc(-c5ccccc5)nc4c3)c3c(N)nccn32)C1 [Linsitinib] (partner 1 µM)
A digest of the protocol: as §1

The results in this text go back to the supplement of paper PMC10307832.

Turning to UMC-11, the relative viability in test [1] (first compound 0.02 µM) was determined as 0.483; in test [1] (first compound 0.06325 µM), 0.447; in test [1] (first compound 0.2 µM), 0.381; in test [1] (first compound 2 µM), 0.457; in test [2] (first compound 0.6325 µM), 0.317; in test [2] (first compound 2 µM), 0.532. The relative viability in test [2] (first compound 6.325 µM) was 0.215; in test [2] (first compound 20 µM), 0.158; in test [3] (first compound 0.02 µM), 0.323; in test [3] (first compound 0.06325 µM), 0.258; in test [3] (first compound 0.2 µM) it was 0.312; in test [3] (first compound 2 µM) it was 0.266. Further, the relative viability in test [4] (first compound 0.1 µM) turned out to be 1.11; in test [4] (first compound 0.3162 µM), 1.21; in test [4] (first compound 1 µM), 1.07; in test [4] (first compound 3.162 µM), 1.04; in test [4] (first compound 10 µM), 1.07.
